Test results published in patent US20240059703A1 (AMGEN INC., priority 2021, published 2024).

biological target: KRAS G12C (Homo sapiens (Human), UniProt P01116, C118A/G12C); assay: 2 h coupled exchange assay; assay type: biochemical; conditions: Avg 2 h Coupled exchange IC50, 2 h compound pre-incubation
Protocol: The term “2 h coupled exchange assay” or “20 h coupled exchange assay” as used herein refers to the assay described in the Section entitled “BIOLOGICAL EVALUATION.”

Chain of KRAS G12C (P01116 other isoform, or with tags, fused parts or gaps G12C/C118A): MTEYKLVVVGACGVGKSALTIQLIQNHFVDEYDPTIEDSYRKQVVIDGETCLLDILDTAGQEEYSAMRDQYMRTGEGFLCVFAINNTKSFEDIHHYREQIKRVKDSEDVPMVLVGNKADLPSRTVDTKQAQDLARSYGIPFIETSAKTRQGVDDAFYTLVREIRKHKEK

Row | IC50 | Compound
1 | 0.056 µM | C=CC(=O)N1CC2(CCN(c3nc4c(c(-c5c(C)c(Cl)cc6cn[nH]c56)c3F)COC(C)(C)C4)C2)C1 [Example 14-85]
2 | 10.4 µM | C=CC(=O)N1CC2(CCN(c3nc4c(c(-c5c(C)c(Cl)cc6cnn(C)c56)c3C)COC(C)(C)C4)C2)C1 (single isomer, unassigned) [Example 14-88, (M)-1-(6-(4-(5-chloro-1,6-dimethyl-1H-indazol-7-yl)-3,7,7-trimethyl-7,8-dihydro-5H-pyrano[4,3-b]pyridin-2-yl)-2,6-diazaspiro[3.4]octan-2-yl)-2-propen-1-one]

same assay, conditions: Avg 2 h Coupled exchange IC50, 2 h compound pre-incubation, SOS-mediated nucleotide exchange

Row | IC50 | Compound
3 | 1.11 µM | C=CC(=O)N1CC2(CCN(c3nc4c(c(-c5cnccc5C)c3C#N)C[C@H]3C[C@@H]4C3(C)C)C2)C1 [Example 13-109, (1R,9R)-10,10-dimethyl-6-(4-methyl-3-pyridinyl)-4-(2-(2-propenoyl)-2,6-diazaspiro[3.4]octan-6-yl)-3-azatricyclo[7.1.1.0^2,7]undeca-2,4,6-triene-5-carbonitrile]
4 | 16 µM | C=CC(=O)N1CC2(CCN(c3nc4c(c(-c5cc(O)ccc5C)c3C#N)C[C@H]3C[C@@H]4C3(C)C)C2)C1 (single isomer, unassigned) [Example 2-68]
5 | 0.344 µM | C=CC(=O)N1CC2(CCN(c3nc4c(c(-c5cccc6cnn(C)c56)c3C#N)C[C@H]3C[C@@H]4C3(C)C)C2)C1 [Example 12-40, (1R,9R)-10,10-dimethyl-6-(1-methyl-1H-indazol-7-yl)-4-(2-(2-propenoyl)-2,6-diazaspiro[3.4]octan-6-yl)-3-azatricyclo[7.1.1.0^2,7] undeca-2,4,6-triene-5-carbonitrile]
6 | 0.443 µM | C=CC(=O)N1CC2(CCN(c3nc4c(c(-c5cc(Cl)cc6ccn(C)c56)c3C#N)COC(C)(C)C4)C2)C1 (single isomer, unassigned) [Example 12-9, (P)-4-(5-chloro-1-methyl-1H-indol-7-yl)-7,7-dimethyl-2-(2-(2-propenoyl)-2,6-diazaspiro[3.4]octan-6-yl)-7,8-dihydro-5H-pyrano[4,3-b]pyridine-3-carbonitrile]
7 | 0.687 µM | C=CC(=O)N1CC2(CCN(c3nc4c(c(-c5c(C)ccc6nonc56)c3C#N)C[C@H]3C[C@@H]4C3(C)C)C2)C1 [Example 12-26, (1R,9R)-10,10-dimethyl-6-(5-methyl-2,1,3-benzoxadiazol-4-yl)-4-(2-(2-propenoyl)-2,6-diazaspiro[3.4]octan-6-yl)-3-azatricyclo[7.1.1.0^2,7] undeca-2,4,6-triene-5-carbonitrile]
8 | 0.808 µM | C=CC(=O)N1CC2(CCN(c3nc4c(c(-c5cc(Cl)cc6cnn(C)c56)c3C)COC(C)(C)C4)C2)C1 [Example 2-32, 1-(6-(4-(5-chloro-1-methyl-1H-indazol-7-yl)-3,7,7-trimethyl-7,8-dihydro-5H-pyrano[4,3-b]pyridin-2-yl)-2,6-diazaspiro[3.4]octan-2-yl)-2-propen-1-one]
9 | 0.021 µM | C=CC(=O)N1CC2(CCN(c3nc4c(c(-c5c(C)c(Cl)cc6[nH]ncc56)c3Cl)COC(C)(C)C4)C2)C1 [Example 2-92, 1-(6-(3-chloro-4-(6-chloro-5-methyl-1H-indazol-4-yl)-7,7-dimethyl-7,8-dihydro-5H-pyrano[4,3-b]pyridin-2-yl)-2,6-diazaspiro[3.4]octan-2-yl)-2-propen-1-one]
10 | 0.283 µM | C=CC(=O)N1CC2(CCN(c3nc4c(c(-c5c(C)ccc6cnn(C)c56)c3C#N)CCC4(C)C)C2)C1 (single isomer, unassigned) [Example 13-103, (M)-2-(2-acryloyl-2,6-diazaspiro[3.4]octan-6-yl)-4-(1,6-dimethyl-1H-indazol-7-yl)-7,7-dimethyl-6,7-dihydro-5H-cyclopenta[b]pyridine-3-carbonitrile]
11 | 64.9 µM | C=CC(=O)N1CC2(CCN(c3nc4c(c(-c5c(C)ccc6cnn(C)c56)c3C#N)C[C@H]3C[C@@H]4C3)[C@H]2C)C1 (single isomer, unassigned) [Example 13-32]
